Laboratory results from US8877889B2, “Tumor cell-killing peptides” (Industry-Academic Cooperation Foundation, Chosun University, priority 2009, dated 2014).
“Also recorded” adds a separate entry of the source.

Key:
Format in all cases: cell-based
[1] = tested on: HeLa cells; test: Cell death after transfection of Noxa constructs, counting EGFP-positive dead cells; conditions: for cell death after over-expression: within 11 hrs after transfection (FIG. 1D); for cell death-inducing activity of Noxa point mutants: 20 hours after transfection (FIG. 3B); for cell death-inducing activity of leucine substitution mutants 4Lmt, 5Lmt: HeLa cells transfected (FIG. 8A)
Method: (D) HeLa cells were transfected with deletion mutants of Noxa. At 11 hrs, 24 hrs, and 36 hrs after transfection, cell death was determined by counting EGFP-positive dead cells with morphological changes using the fluorescent microscope.
(B) HeLa cells were transfected with WT or with the indicated Noxa mutants. 20 hours after transfection cell death was determined by counting the EGFP-positive dead and survived cells under the fluorescent microscope.
(A) HeLa cells were transfected with either WT Noxa, 4Lmt (L42A, L43A, L45A, L49A), or 5Lmt (L29A, L42A, L43A, L45A, L49A) constructs. At the indicated times after transfection, cell death was determined by counting the EGFP-positive dead cells with morphological changes under the fluorescent microscope.
HeLa cells were transfected with EGFP-Noxa WT and 41-54 in combination with Bcl-2 expression plasmid or in the presence of zVAD-fmk (25 μM). 18 hours after transfection, cell death was determined by counting EGFP-positive dead cells with morphological changes using the fluorescent microscope. Data represent an average±SD of three experiments each with 200 total cells counted.
The percentage of cell death was determined by counting EGFP-positive dead cells with morphology using the fluorescent microscope. Minimally, 300 cells in three separate fields were counted for each measurement.

[2] = tested on: HeLa cells; test: Mitochondrial localization of Noxa mutants, confocal microscopy; conditions: confocal microscopic image analysis
Source text: (B) HeLa cells were co-transfected with the pDsRed2-Mito and either Noxa 4Lmt or Noxa 5Lmt. 18 hrs after transfection the mitochondrial morphology was observed under the laser confocal microscope.

[3] = tested on: CT26 mouse colon carcinoma cells; test: Tumor cell killing activity, bright field images; conditions: 10 μM peptide (FIG. 9A)
Method: (A) CT26 cells were treated with 10 μM MTD, TU1:MTD, TU2:MTD, or TU3:MTD peptides, and bright field images for indicated peptides were obtained at indicated time points. Representative images of at least 3 individual experiments were presented.

[4] = tested on: HeLa cells; test: Peptide-induced cell death, counting dead and survived cells under the light microscope; conditions: peptides 10 μM, 20 μM, 30 μM, 10 minutes after treatment (FIG. 1B, 3A)
Method: (B) HeLa cells were treated with DMSO or the indicated peptides in increasing doses (10 μM, 20 μM, and 30 μM). % of cell death was determined at 10 minutes after treatment by counting the dead cells and survived cells under the light microscope.
(E) HeLa cells were transfected with substitution mutants of MTD peptide.
HeLa cells were treated with DMSO or with the indicated peptides at increasing doses (10 μM, 20 μM, or 30 μM). % cell death was determined 10 minutes after treatment by counting the dead cells and survived cells (300 cells per sample) under the light microscope.
(D) HeLa cells were treated with indicated amounts of MTD peptide for 1 hour, 2 hours, or 5 hours. % cell death was calculated by counting the dead cells and survived cells (200 to 500 cells per sample) under the light microscope. Data represent the means±SD of three independent experiments.

[5] = tested on: NCI-H460 cells; test: Peptide-induced cell death in NCI-H460 cells; conditions: 5 μM, 2 or 5 hours (FIG. 3C)
Method: (C) NCI-H460 cells were treated with indicated peptides for 2 hours or 5 hours. % cell death was determined as described above.

[6] = tested on: HeLa cells; test: Measurement of intracellular calcium with Fluo-4-AM; conditions: 3 μM peptide
Method: (A-C) HeLa cells were loaded with 3 μM Fluo-4-AM for 30 minutes and then treated with 3 μM of indicated peptides (A: MTD, B: MTDmt3, C: MTDmt5). Fluorescence images and bright-field images were obtained with the laser scanning confocal microscope at 5-second intervals for 5 minutes. Relative fluorescence intensities (F/F0) at two region-of-interests (ROI 1 and 2) were measured at 5-second intervals for 5 minutes.
(E-G) HeLa cells were pretreated in calcium free KRB media alone (E), in KRB media with 10 μM 2-APB and 20 μM Ryanodine (F), or in KRB media with freshly made 30 μM CsA (G) for 2 hours. HeLa cells were then loaded with 3 μM Fluo-4-AM for 30 minutes and treated with 3 μM of MTD peptide. Images were obtained with the laser scanning confocal microscope at 5-second intervals for 5 minutes. Relative fluorescence intensities (F/F0) at two region-of-interests (ROI 1 and 2) were measured at 5-second intervals for 5 minutes.
For Ca^2+ measurements in the cytosol, HeLa cells were cultured in an Lab-Tek™ Chamber glass slide and loaded with Fluo-4-AM (Fluo-4-acetoxymethyl ester) at a final concentration of 3 μM for 30 minutes, followed by washing with PBS (Phosphate buffered saline) at pH 7.4 and the addition of fresh Ca^2+-free Krebs-ringer modified buffer (KRB: 125 mM NaCl, 5 mM KCl, 1 mM Na3PO4, 1 mM MgSO4, 5.5 mM glucose, and 20 mM HEPES, pH 7.4, at 37° C.) containing the indicated peptides. Time-lapse images were obtained at 488 nm excitation with the Argon laser scanning confocal microscope (Leica TCS SP5 Microsystems, Mannheim, Germany) at 10-second intervals for 5 minutes to visualize Fluo-4-AM.

[7] = tested on: HeLa cells; test: Caspase activation, western blot of cell lysates; conditions: 5 μM peptide
Method: (E) After treatment with the MTD peptide, MTDmt4, or MTDmt5 (5 μM) in HeLa cells, cell lysates were prepared at indicated times. Equal amounts of proteins were subjected to the SDS-PAGE and blotted onto PVDF membrane. After blocked with 5% nonfat milk in TBST (10 mM Tris-HCl, pH 7.5, 100 mM NaCl and 0.1% Tween-20), the membrane was probed with anti-caspase-3 (SantaCruz Biotechnology, Inc., Santa Cruz, Calif., USA), anti-caspase-8 (Cell signaling technology, Beverly, Mass., USA), anti-caspase-9 (SantaCruz Biotechnology, Inc., Santa Cruz, Calif.), anti-XIAP (Upstate Biotechnology, Dundee, United Kingdom), or anti-Bid (home-made) antibodies. Anti-actin antibody (Chemicon International, Inc., Temecula, Calif., USA) was used as equal loading control.

[8] = tested on: HeLa cells; test: Live cell images and annexin V / SYTOX Green staining of dying cells; conditions: MTD peptide 10 μM or TRAIL 100 ng/ml (FIG. 2A, 7A, 7B)
Method: (A) HeLa cells were treated with MTD peptides (10 μM), or TRAIL (100 ng/ml). Images were taken at the indicated times (upper panel). Jurkat cells were treated with MTD peptide (10 μM) for 10 minutes, cells were processed for TEM. Images were obtained with 4,000× magnification (lower panel). N: nucleus, M: mitochondrion.
(D) HeLa cells were treated with the MTD (5 μM) peptide with or without the pretreatment of 10 μM BAPTA-AM for 2 hours. Live cell images were serially acquired at 10-second intervals for 10 minutes and shown at the indicated times.
(A) HeLa cells were stained with FITC-conjugated Annexin V antibody at 10 minutes after DMSO or MTD treatment. Images were obtained under the confocal microscope.
(B) HeLa cells were stained with SYTOX Green 10 minutes after DMSO or MTD treatment. Images were obtained using confocal microscope.

1-30: Noxa deletion mutant which did not contain any domains (MPGKKARKNAQPSPARAPAELEVECATQLR; UniProt Q13794 1-30, looked up, fragment)
cell death after over-expression ([1]; HeLa cells): no effect on cell death

3Lmt: Noxa triple substitution L45A, L49A and L29A (MPGKKARKNAQPSPARAPAELEVECATQARRFGDKLNFRQKLLNAISKAFCSGT; UniProt Q13794 1-54, looked up, variant L29A L45A L49A)
cell death-inducing activity of Noxa point mutants ([1]; HeLa cells): remarkably reduced the cell death-inducing activities

4Lmt: Noxa mutant with L42A, L43A, L45A and L49A (MPGKKARKNAQPSPARAPAELEVECATQLRRFGDKLNFRQKAANAISKAFCSGT; UniProt Q13794 1-54, looked up, variant L42A L43A L45A L49A)
cell death-inducing activity of leucine substitution mutants 4Lmt, 5Lmt [1]: almost completely lost all of the cell death-inducing activity
mitochondrial localization [2]: loss of Noxa mitochondrial localization

5Lmt: Noxa mutant with L29A, L42A, L43A, L45A and L49A (MPGKKARKNAQPSPARAPAELEVECATQARRFGDKLNFRQKAANAISKAFCSGT; UniProt Q13794 1-54, looked up, variant L29A L42A L43A L45A L49A)
cell death-inducing activity of leucine substitution mutants 4Lmt, 5Lmt [1]: almost completely lost all of the cell death-inducing activity
mitochondrial localization [2]: loss of Noxa mitochondrial localization

21-40: Noxa deletion mutant containing only the BH3 domain (LEVECATQLRRFGDKLNFRQ; UniProt Q13794 21-40, looked up, fragment)
cell death-inducing activity after over-expression, with increasing time ([1]; HeLa cells, 24 hrs and 36 hrs after transfection (FIG. 1D)): strong cell death-inducing activity
membrane morphology of transfected cells ([1]; HeLa cells, data not shown): membrane blebbings
cell death after over-expression ([1]; HeLa cells): induced little cell death within 11 hrs

CNGRCGGKLLNLISKLF [TU1:MTD]
tumor cell killing activity [3]: no or little killing activity

L29A: Noxa single substitution in the BH3 domain (MPGKKARKNAQPSPARAPAELEVECATQARRFGDKLNFRQKLLNLISKLFCSGT; UniProt Q13794 1-54, looked up, variant L29A)
cell death-inducing activity of Noxa point mutants ([1]; HeLa cells): remarkably reduced the cell death-inducing activities

L42A (MPGKKARKNAQPSPARAPAELEVECATQLRRFGDKLNFRQKALNLISKLFCSGT; UniProt Q13794 1-54, looked up, variant L42A)
mitochondrial localization [2]: maintained the typical mitochondrial localization of Noxa

L43A (MPGKKARKNAQPSPARAPAELEVECATQLRRFGDKLNFRQKLANLISKLFCSGT; UniProt Q13794 1-54, looked up, variant L43A)
mitochondrial localization [2]: maintained the typical mitochondrial localization of Noxa

L45A (MPGKKARKNAQPSPARAPAELEVECATQLRRFGDKLNFRQKLLNAISKLFCSGT; UniProt Q13794 1-54, looked up, variant L45A)
cell death-inducing activity of Noxa point mutants ([1]; HeLa cells): remarkably reduced the cell death-inducing activities
mitochondrial localization [2]: maintained the typical mitochondrial localization of Noxa

L49A (MPGKKARKNAQPSPARAPAELEVECATQLRRFGDKLNFRQKLLNLISKAFCSGT; UniProt Q13794 1-54, looked up, variant L49A)
cell death-inducing activity of Noxa point mutants ([1]; HeLa cells): remarkably reduced the cell death-inducing activities
mitochondrial localization [2]: maintained the typical mitochondrial localization of Noxa

RRRRRRRRGRQKLLNAASKLF (PTD-MTDmt3 fusion peptide derived from Homo sapiens)
cell death-inducing activity (% of cell death) [4]: completely lost their cell death-inducing activities; also recorded: no cell death
susceptibility of cells to peptide [5]: not
cytosolic calcium level change [6]: did not induce changes in the cytosolic calcium level

RRRRRRRRGRQKLLNLIAALF (PTD-MTDmt4 fusion peptide derived from Homo sapiens)
cell death-inducing activity (% of cell death) [4]: maintaining the killing activity
caspase activation [7]: not activated

B1: TRAIL (protein, UniProt P50591 1-281, looked up)
Tumor necrosis factor ligand …: MAMMEVQGGPSLGQTCVLIVIFTVLLQSLCVAVTYVYFTNELKQMQDKYSKSGIACFLKEDDSYWDPNDEESMNSPCWQVKWQLRQLVRKMILRTSEETISTVQEKQQNISPLVRERGPQRVAAHITGTRGRSNTLSSPNSKNEKALGRKINSWESSRSGHSFLSNLHLRNGELVIHEKGFYYIYSQTYFRFQEEIKENTKNDKQMVQYIYKYTSYPDPILLMKSARNSCWSKDAEYGLYSIYQGGIFELKENDRIFVSVTNEHLIDMDHEASFFGAFLVG
notes: apoptosis inducer used at 100 ng/ml for comparison
morphology of dying cells [8]: membrane shrinkage of apoptotic cells
